Several values for one entry are separate records, joined by “and”; a condition that tells them apart may be missing. Identical values can stand only once.
Each compound was assayed against Glycogen synthase kinase-3 beta (Homo sapiens, UniProt P49841) (assay: TR-FRET Assay).
Description: The assay was performed in a white, 384 well, low volume, flat bottom plate (Grenier). […] The kinase activity was quenched with 2 μL of 250 mM EDTA. A 10 μL volume of 40 nM Strepavidin-d2, 2 nM Tb2+-pSer641 antibody in TR-FRET Detection Buffer (Invitrogen) was then added.

Sequence of Glycogen synthase kinase-3 beta (P49841 whole entry): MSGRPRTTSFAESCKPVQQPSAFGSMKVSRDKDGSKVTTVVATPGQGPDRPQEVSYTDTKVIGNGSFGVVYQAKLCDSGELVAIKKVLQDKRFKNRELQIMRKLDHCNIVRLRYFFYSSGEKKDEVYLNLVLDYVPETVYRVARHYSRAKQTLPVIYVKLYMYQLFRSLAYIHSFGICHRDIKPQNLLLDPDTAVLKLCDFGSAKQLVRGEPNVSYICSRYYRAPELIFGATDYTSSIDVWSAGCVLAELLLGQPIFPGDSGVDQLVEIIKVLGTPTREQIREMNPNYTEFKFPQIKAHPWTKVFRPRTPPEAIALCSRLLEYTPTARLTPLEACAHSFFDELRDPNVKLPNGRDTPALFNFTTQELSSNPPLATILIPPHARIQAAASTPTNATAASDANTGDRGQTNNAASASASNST

`CC1(C)CC(=O)C2=C(C1)NC1N=NC(C3CC(F)(F)C3)=C1[C@]21COc2ccccc21` (some centres undefined) [US20250313563, Compound 127429] and `CC1(C)CC(=O)C2=C(C1)NC1N=NC(C3(C(F)(F)F)CC3)=C1[C@@]21CCc2c(F)cccc21` (some centres undefined) [US20250313563, Compound 816839] fall in the same range of IC50: 1000 to 5000 nM for the first, 1000 to 5000 nM for the second.

`CC[C@]1(c2cccc(-c3c(F)cncc3OC)c2)C2=CN=NC2NC2=C1C(=O)CC(C)(C)[C@@H]2F` (some centres undefined) [US20250313563, Compound 948546] and `CC[C@]1(c2cccc(-c3ccncc3OC)c2)C2=CN=NC2NC2=C1C(=O)CC(C)(C)C2` (some centres undefined) [US20250313563, Compound 945481] fall in the same range of IC50: 100 to 1000 nM for the first, 100 to 1000 nM for the second.

`CC[C@@]1(c2cccc(-c3cnn(C)c3C#N)c2)C2=CN=NC2NC2=C1C(=O)NC(C)(C)C2` (some centres undefined) [US20250313563, Compound 948827] and `CC[C@]1(c2cccc(-c3cc(C)ncc3F)c2)C2=CN=NC2NC2=C1C(=O)NC(C)(C)C2` (some centres undefined) [US20250313563, Compound 947804] fall in the same range of IC50: 100 to 1000 nM for the first, 100 to 1000 nM for the second.

`CCC1(c2cccc(C(F)(F)F)c2)C2=C(N=NC2)NC2=C1C(=O)N(C)C2C` (centres undefined) [US20250313563, Compound 911957] and `CC[C@@]1(c2cccc(C(F)(F)F)c2)C2=C(CCN(c3cnc(OC)nc3)C2=O)NC2N=NC(C)=C21` (some centres undefined) [US20250313563, Compound 949126] fall in the same range of IC50: 100 to 1000 nM for the first, 100 to 1000 nM for the second.

`CC[C@]1(c2cccc(-c3ccnc(O)c3)c2)C2=CN=NC2NC2=C1C(=O)CC(C)(C)C2` (some centres undefined) [US20250313563, Compound 943992] and `CCN(c1cccc([C@@]2(CC)C3=CN=NC3NC3=C2C(=O)CC(C)(C)C3)c1)c1ncccn1` (some centres undefined) [US20250313563, Compound 947333] fall in the same range of IC50: 100 to 1000 nM for the first, 100 to 1000 nM for the second.

`CC1(C)CC(=O)C2=C(C1)NC1=C(CN=N1)[C@]21CCN(S(=O)(=O)c2ccccc2F)C1` [US20250313563, Compound 943487] and `COc1cccc(S(=O)(=O)N2CCC3(CC2)C2=C(N=NC2)NC2=C3C(=O)CC(C)(C)C2)c1` [US20250313563, Compound 943962] fall in the same range of IC50: 100 to 1000 nM for the first, 100 to 1000 nM for the second.

`CC(C)(C)CC1N=NC2=C1[C@@]1(CCc3cccc(F)c31)C1=C(CC(C)(C)CC1=O)N2` (some centres undefined) [US20250313563, Compound 801351] and `CC[C@@]1(c2cccc(N3CCCC3)c2)C2=C(CC(C)(C)CC2=O)NC2N=NC(C)=C21` (some centres undefined) [US20250313563, Compound 883874] fall in the same range of IC50: 100 to 1000 nM for the first, 100 to 1000 nM for the second.

`CC[C@]1(c2cccc(-c3cc(C)ncc3C)c2)C2=C(CC(C)(C)CC2=O)NC2N=NC(C(F)(F)F)=C21` (some centres undefined) [US20250313563, Compound 947363] and `CC[C@@]1(c2cccc(N3CCCCC3)c2)C2=C(CC(C)(C)NC2=O)NC2N=NC(C(F)(F)F)=C21` (some centres undefined) [US20250313563, Compound 949183] fall in the same range of IC50: 100 to 1000 nM for the first, 100 to 1000 nM for the second.

`CC[C@]1(c2cccc(COC)c2)C2=CN=NC2NC2=C1C(=O)CC(C)(C)C2` (some centres undefined) [US20250313563, Compound 810360] and `CC[C@@]1(c2cccc(-c3cnn(Cc4ccc(C(F)(F)F)cc4)c3)c2)C2=CN=NC2NC2=C1C(=O)NC(C)(C)C2` (some centres undefined) [US20250313563, Compound 951849] fall in the same range of IC50: 100 to 1000 nM for the first, 100 to 1000 nM for the second.

`CC[C@]1(c2cccc(C(F)(F)F)c2)C2=CN=NC2NC2=C1C(=O)N(c1cnc(OC)nc1)[C@H](C)C2` (some centres undefined) [US20250313563, Compound 949351] and `CC1(C)CC(=O)C2=C(C1)NC1=C(CN=N1)[C@]21COC2(CN(C(=O)C3CCOCC3)C2)C1` [US20250313563, Compound 945407] fall in the same range of IC50: 100 to 1000 nM for the first, 100 to 1000 nM for the second.

With `CC[C@]1(c2cccc(S(C)(=O)=O)c2)C2=CN=NC2NC2=C1C(=O)CC(C)(C)C2` (some centres undefined) [US20250313563, Compound 826718] the IC50 was < 100 nM and 100 to 1000 nM.
`CC[C@@]1(c2cccc(N(C)c3ncccn3)c2)C2=C(CC(C)(C)NC2=O)NC2N=NC(C(F)(F)F)=C21` (some centres undefined) [US20250313563, Compound 949181] was tested, and the IC50 was < 100 nM and 100 to 1000 nM.
`CC[C@]1(c2cccc(S(=O)(=O)C3CC3)c2)C2=CN=NC2NC2=C1C(=O)CC(C)(C)C2` (some centres undefined) [US20250313563, Compound 912171] was tested, and the IC50 was < 100 nM and 100 to 1000 nM.
For `CC(C)(C)CC1N=NC2=C1C1(CN(c3ccccc3)C1)C1=C(CC(C)(C)CC1=O)N2` (centres undefined) [US20250313563, Compound 93429], the IC50 was 1000 to 5000 nM and 134 nM.

Source: BindingDB's records for patent US20250313563 (The Broad Institute, 2025)
